As usually defined, the EC50 is the midpoint of the concentration-response curve. Broadly, the Ki is the dissociation constant of the complex between target and ligand, obtained from inhibition or displacement.

This is an account of results in patent publication US12252524B2, “GIP/GLP1 co-agonist compounds” (Eli Lilly and Company, priority 2018, dated 2025).

Each structure is given as a SMILES string. Numbered stars: 1 amine (or outer) side, 2 acyl side, 3 side chain; on linkers, the order of the positions; unused ones are H or OH. Square brackets hold non-standard residues; d marks the D form. Side chains are listed from the residue outwards. Peptide text beside a SMILES is read from it. * marks the point of attachment. C20 diacid = O=C(O)CCCCCCCCCCCCCCCCCCC(=O)*; C18 diacid = O=C(O)CCCCCCCCCCCCCCCCC(=O)*; αMePhe(2-F) = C[C@](N)(Cc1ccccc1F)C(=O)O; γGlu = O=C(O)[C@H](CCC(=O)[*:2])N[*:1]; αMeY = C[C@](N)(Cc1ccc(O)cc1)C(=O)O; 4Pal = N[C@@H](Cc1ccncc1)C(=O)O; αMeL = CC(C)C[C@](C)(N)C(=O)O; Orn = NCCC[C@H](N)C(=O)O; AEEA = NCCOCCOCC(=O)O; Aib = CC(C)(N)C(=O)O

Experiment [1] deals with human GLP-1 receptor (GLP-1R) (Homo sapiens, UniProt P43220). Nature of the experiment: cAMP pharmacological functional assay in presence of casein, hGLP-1R. It is filed as cell-based. Particulars: HEK293 cells expressing hGLP-1R, 0.1% Casein, geometric mean; read-out: hGLP1R cAMP Rel EC50 nM (SEM, n).
human GLP-1 receptor (GLP-1R), sequence (P43220 24-463): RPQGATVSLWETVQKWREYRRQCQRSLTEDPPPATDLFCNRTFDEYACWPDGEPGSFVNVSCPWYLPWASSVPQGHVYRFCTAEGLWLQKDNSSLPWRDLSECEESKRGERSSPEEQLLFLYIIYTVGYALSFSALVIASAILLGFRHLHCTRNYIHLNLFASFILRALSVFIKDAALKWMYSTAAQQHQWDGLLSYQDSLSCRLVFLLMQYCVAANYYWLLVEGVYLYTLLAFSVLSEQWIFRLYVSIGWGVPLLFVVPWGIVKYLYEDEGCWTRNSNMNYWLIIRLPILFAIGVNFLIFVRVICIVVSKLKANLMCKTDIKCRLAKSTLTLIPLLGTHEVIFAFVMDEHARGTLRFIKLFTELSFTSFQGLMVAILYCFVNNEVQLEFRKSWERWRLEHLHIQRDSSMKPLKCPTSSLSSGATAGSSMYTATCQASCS
A further experiment concerns the target T1, human Gcg receptor (Homo sapiens, UniProt P47871).
T1 construct: expressed in transfected cells; crude membranes
The experiment in a line: [125I]-Glucagon binding (SPA), human Gcg receptor. To be noted: read-out: hGLcgR Ki, nM (SEM, n). Put shortly: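 Cell pellets were lysed in hypotonic Tris buffer, pH 7.5, homogenized, and spun at low then high speed to give crude membranes. Ki was derived from the fitted IC50.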

A further experiment has as its target human GLP-1R (Homo sapiens, UniProt P43220). Nature of the experiment: [125I]-GLP-1 binding (SPA), human GLP-1 receptor. Set-up: expressed in transfected cells; crude membranes. Particulars: read-out: hGLP1R Ki, (nM) (SEM, n). Put shortly: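 Frozen cell pellets are lysed on ice in hypotonic Tris buffer, pH 7.5, homogenized, and centrifuged to a membrane pellet resuspended at about 1 to 3 mg/mL. Binding is then measured in HEPES-based buffer at pH 7.4, and curves are fitted to give IC50 and Ki.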

For the next experiment, the target named is T2, human GIP receptor (Homo sapiens, UniProt P48546).
T2 construct: expressed in transfected cells; crude membranes
T2 sequence (P48546 22-466): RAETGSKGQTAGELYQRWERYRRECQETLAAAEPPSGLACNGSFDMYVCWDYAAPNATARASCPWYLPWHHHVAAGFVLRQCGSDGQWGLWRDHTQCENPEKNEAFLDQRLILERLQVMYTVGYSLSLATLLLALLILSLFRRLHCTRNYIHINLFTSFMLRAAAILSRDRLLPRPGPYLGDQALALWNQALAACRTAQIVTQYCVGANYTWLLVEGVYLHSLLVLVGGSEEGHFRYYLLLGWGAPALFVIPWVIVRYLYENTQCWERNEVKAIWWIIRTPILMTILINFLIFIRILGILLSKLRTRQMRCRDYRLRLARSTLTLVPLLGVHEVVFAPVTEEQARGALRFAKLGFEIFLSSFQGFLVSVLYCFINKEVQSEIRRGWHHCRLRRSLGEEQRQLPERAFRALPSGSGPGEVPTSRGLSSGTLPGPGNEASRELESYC
Nature of the experiment: [125I]-GIP binding (SPA), human GIP receptor. Particulars: read-out: hGIPR Ki, nM (SEM, n).

Experiment [2] has as its target T3, gastric inhibitory peptide receptor (GIPR) (Homo sapiens, UniProt P48546).
T3 sequence (P48546 22-466): T2 sequence (P48546 22-466)
Nature of the experiment: cAMP pharmacological functional assay in presence of casein, hGIPR. It is filed as cell-based. To be noted: HEK293 cells expressing hGIPR, 0.1% Casein, geometric mean; read-out: hGIPR cAMP Rel EC50 nM (SEM, n).

human GLP-1R, sequence (P43220 24-463): as the sequence (P43220 24-463) above
T1 sequence (P47871 26-477): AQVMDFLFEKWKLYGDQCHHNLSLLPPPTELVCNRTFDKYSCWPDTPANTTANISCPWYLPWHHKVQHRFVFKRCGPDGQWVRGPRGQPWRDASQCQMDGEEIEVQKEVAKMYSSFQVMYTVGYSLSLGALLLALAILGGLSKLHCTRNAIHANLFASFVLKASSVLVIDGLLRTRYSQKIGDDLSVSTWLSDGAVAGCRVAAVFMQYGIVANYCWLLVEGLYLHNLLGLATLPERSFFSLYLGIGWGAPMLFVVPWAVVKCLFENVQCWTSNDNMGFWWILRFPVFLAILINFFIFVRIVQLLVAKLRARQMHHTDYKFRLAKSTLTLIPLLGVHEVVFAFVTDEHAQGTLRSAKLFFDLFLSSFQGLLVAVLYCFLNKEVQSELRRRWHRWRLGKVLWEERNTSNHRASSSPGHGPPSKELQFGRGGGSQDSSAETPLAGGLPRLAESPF

For `CC[C@H](C)[C@H](NC(=O)[C@H](CC(C)C)NC(=O)[C@H](Cc1ccc(O)cc1)NC(=O)[C@H](CCC(=O)O)NC(=O)[C@@H](NC(=O)[C@H](Cc1ccccc1)NC(=O)[C@H](C)NC(=O)C(C)(C)NC(=O)[C@H](CCC(N)=O)NC(=O)[C@H](C)NC(=O)[C@H](CCCCNC(=O)COCCOCCNC(=O)COCCOCCNC(=O)CC[C@H](NC(=O)CCCCCCCCCCCCCCCCCCC(=O)O)C(=O)O)NC(=O)[C@H](CCCCN)NC(=O)[C@H](CC(=O)O)NC(=O)[C@H](CC(C)C)NC(=O)[C@](C)(CC(C)C)NC(=O)[C@@H](NC(=O)[C@H](CO)NC(=O)[C@H](Cc1ccc(O)cc1)NC(=O)[C@H](CC(=O)O)NC(=O)[C@H](CO)NC(=O)[C@@H](NC(=O)[C@H](Cc1ccccc1)NC(=O)[C@@H](NC(=O)CNC(=O)[C@H](CCC(=O)O)NC(=O)C(C)(C)NC(=O)[C@@H](N)Cc1ccc(O)cc1)[C@@H](C)O)[C@@H](C)O)[C@@H](C)CC)[C@@H](C)CC)C(=O)N[C@@H](CCC(=O)O)C(=O)NCC(=O)NCC(N)=O` [Example 62] (H-Y[Aib]EGTFTSDYSI[αMeL]LDKK([AEEA-AEEA-γGlu-C20 diacid])AQ[Aib]AFIEYLIEGG-NH2), the results for the EC50 in experiment [1] and in experiment [2] were 0.159 nM and 0.0601 nM, respectively. Further, the Ki at human Gcg receptor turned out to be 168 nM; on human GLP-1R, 2.03 nM; at human GIP receptor, 0.0545 nM.

In the case of `CC[C@H](C)[C@H](NC(=O)[C@H](CC(C)C)NC(=O)[C@H](Cc1ccc(O)cc1)NC(=O)[C@H](CCC(=O)O)NC(=O)[C@@H](NC(=O)[C@H](Cc1ccccc1)NC(=O)[C@H](CCC(=O)O)NC(=O)C(C)(C)NC(=O)[C@H](CCC(N)=O)NC(=O)[C@H](C)NC(=O)[C@H](CCCCNC(=O)COCCOCCNC(=O)COCCOCCNC(=O)CC[C@H](NC(=O)CCCCCCCCCCCCCCCCCCC(=O)O)C(=O)O)NC(=O)[C@H](CCC(=O)O)NC(=O)[C@H](CC(=O)O)NC(=O)[C@H](CC(C)C)NC(=O)[C@](C)(CC(C)C)NC(=O)[C@@H](NC(=O)[C@H](CO)NC(=O)[C@H](Cc1ccncc1)NC(=O)[C@H](CC(=O)O)NC(=O)[C@H](CO)NC(=O)[C@@H](NC(=O)[C@](C)(Cc1ccccc1F)NC(=O)[C@@H](NC(=O)CNC(=O)[C@H](CCC(=O)O)NC(=O)C(C)(C)NC(=O)[C@@H](N)Cc1ccc(O)cc1)[C@@H](C)O)[C@@H](C)O)[C@@H](C)CC)[C@@H](C)CC)C(=O)N[C@@H](CCC(=O)O)C(=O)NCC(=O)NCC(=O)N1CCC[C@H]1C(=O)N[C@@H](CO)C(=O)N[C@@H](CO)C(=O)NCC(=O)N[C@@H](C)C(=O)N1CCC[C@H]1C(=O)N1CCC[C@H]1C(=O)N1CCC[C@H]1C(=O)N[C@@H](CO)C(N)=O` [Example 158] (H-Y[Aib]EGT[αMePhe(2-F)]TSD[4Pal]SI[αMeL]LDEK([AEEA-AEEA-γGlu-C20 diacid])AQ[Aib]EFIEYLIEGGPSSGAPPPS-NH2; N-terminus assumed), the EC50 in experiment [1] was 0.0374 nM; in experiment [2], 0.0454 nM. Further, the values for the Ki at human Gcg receptor, at human GLP-1R and on human GIP receptor were 285 nM, 11.8 nM and 0.114 nM, respectively.

For `CC[C@H](C)[C@H](NC(=O)[C@H](CC(C)C)NC(=O)[C@](C)(Cc1ccc(O)cc1)NC(=O)[C@@H](CCC(=O)O)NC(=O)[C@@H](NC(=O)[C@H](Cc1ccccc1)NC(=O)[C@H](C)NC(=O)C(C)(C)NC(=O)[C@H](CCC(N)=O)NC(=O)[C@H](C)NC(=O)[C@H](CCCCNC(=O)COCCOCCNC(=O)COCCOCCNC(=O)CC[C@H](NC(=O)CCCCCCCCCCCCCCCCC(=O)O)C(=O)O)NC(=O)[C@H](CCCN)NC(=O)[C@H](CC(=O)O)NC(=O)[C@H](CC(C)C)NC(=O)[C@](C)(CC(C)C)NC(=O)[C@@H](NC(=O)[C@H](CO)NC(=O)[C@H](Cc1ccncc1)NC(=O)[C@H](CC(=O)O)NC(=O)[C@H](CO)NC(=O)[C@@H](NC(=O)[C@](C)(Cc1ccccc1F)NC(=O)[C@@H](NC(=O)CNC(=O)[C@H](CCC(=O)O)NC(=O)C(C)(C)NC(=O)[C@@H](N)Cc1ccc(O)cc1)[C@@H](C)O)[C@@H](C)O)[C@@H](C)CC)[C@@H](C)CC)C(=O)N[C@@H](CCC(=O)O)C(=O)NCC(=O)NCC(=O)N1CCC[C@H]1C(=O)N[C@@H](CO)C(=O)N[C@@H](CO)C(=O)NCC(=O)N[C@@H](C)C(=O)N1CCC[C@H]1C(=O)N1CCC[C@H]1C(=O)N1CCC[C@H]1C(=O)N[C@@H](CO)C(N)=O` [Example 240] (H-Y[Aib]EGT[αMePhe(2-F)]TSD[4Pal]SI[αMeL]LD[Orn]K([AEEA-AEEA-γGlu-C18 diacid])AQ[Aib]AFI[dE][αMeY]LIEGGPSSGAPPPS-NH2), the values for the EC50 in experiment [1] and in experiment [2] were 0.0393 nM and 0.0223 nM, respectively. The figures for the Ki on human Gcg receptor, on human GLP-1R and at human GIP receptor were 204 nM, 0.552 nM and 0.0284 nM, respectively.

Regarding `CC[C@H](C)[C@H](NC(=O)[C@H](CCCCN)NC(=O)[C@H](CC(=O)O)NC(=O)[C@H](CC(C)C)NC(=O)[C@H](CC(C)C)NC(=O)[C@@H](NC(=O)[C@H](CO)NC(=O)[C@H](Cc1ccc(O)cc1)NC(=O)[C@H](CC(=O)O)NC(=O)[C@H](CO)NC(=O)[C@@H](NC(=O)[C@H](Cc1ccccc1)NC(=O)[C@@H](NC(=O)CNC(=O)[C@H](CCC(=O)O)NC(=O)C(C)(C)NC(=O)[C@@H](N)Cc1ccc(O)cc1)[C@@H](C)O)[C@@H](C)O)[C@@H](C)CC)C(=O)N[C@@H](C)C(=O)N[C@@H](CCC(N)=O)C(=O)NC(C)(C)C(=O)N[C@@H](C)C(=O)N[C@@H](Cc1ccccc1)C(=O)N[C@H](C(=O)N[C@@H](CCC(=O)O)C(=O)N[C@@H](Cc1ccc(O)cc1)C(=O)N[C@@H](CC(C)C)C(=O)N[C@@H](CCCCNC(=O)COCCOCCNC(=O)COCCOCCNC(=O)CC[C@H](NC(=O)CCCCCCCCCCCCCCCCCCC(=O)O)C(=O)O)C(=O)N[C@@H](CCC(=O)O)C(=O)NCC(=O)NCC(=O)N1CCC[C@H]1C(=O)N[C@@H](CO)C(=O)N[C@@H](CO)C(=O)NCC(=O)N[C@@H](C)C(=O)N1CCC[C@H]1C(=O)N1CCC[C@H]1C(=O)N1CCC[C@H]1C(=O)N[C@@H](CO)C(N)=O)[C@@H](C)CC` [Example 36] (H-Y[Aib]EGTFTSDYSILLDKIAQ[Aib]AFIEYLK([AEEA-AEEA-γGlu-C20 diacid])EGGPSSGAPPPS-NH2), the EC50 in experiment [1] was found to be 2.29 nM; in experiment [2] it was 0.309 nM. Further, the Ki at human Gcg receptor was 413 nM; at human GLP-1R, 16.4 nM; on human GIP receptor, 0.141 nM.

For `CC[C@H](C)[C@H](NC(=O)[C@H](CC(C)C)NC(=O)[C@H](Cc1ccc(O)cc1)NC(=O)[C@@H](CCC(=O)O)NC(=O)[C@@H](NC(=O)[C@H](Cc1ccccc1)NC(=O)[C@H](CCC(=O)O)NC(=O)C(C)(C)NC(=O)[C@H](CCC(N)=O)NC(=O)[C@H](C)NC(=O)[C@H](CCCCNC(=O)COCCOCCNC(=O)COCCOCCNC(=O)CC[C@H](NC(=O)CCCCCCCCCCCCCCCCCCC(=O)O)C(=O)O)NC(=O)[C@H](CCC(=O)O)NC(=O)[C@H](CC(=O)O)NC(=O)[C@H](CC(C)C)NC(=O)[C@](C)(CC(C)C)NC(=O)[C@@H](NC(=O)[C@H](CO)NC(=O)[C@@H](NC(=O)[C@H](CC(=O)O)NC(=O)[C@H](CO)NC(=O)[C@@H](NC(=O)[C@](C)(Cc1ccccc1F)NC(=O)[C@@H](NC(=O)CNC(=O)[C@H](CCC(=O)O)NC(=O)C(C)(C)NC(=O)[C@@H](N)Cc1ccc(O)cc1)[C@@H](C)O)[C@@H](C)O)C(C)C)[C@@H](C)CC)[C@@H](C)CC)C(=O)N[C@@H](CCC(=O)O)C(=O)NCC(=O)NCC(=O)N1CCC[C@H]1C(=O)N[C@@H](CO)C(=O)N[C@@H](CO)C(=O)NCC(=O)N[C@@H](C)C(=O)N1CCC[C@H]1C(=O)N1CCC[C@H]1C(=O)N1CCC[C@H]1C(=O)N[C@@H](CO)C(N)=O` [Example 191] (H-Y[Aib]EGT[αMePhe(2-F)]TSDVSI[αMeL]LDEK([AEEA-AEEA-γGlu-C20 diacid])AQ[Aib]EFI[dE]YLIEGGPSSGAPPPS-NH2), the EC50 in experiment [1] came out at 0.0356 nM; in experiment [2] it was 0.0645 nM. For the same compound, the Ki came to 348 nM at human Gcg receptor, 4.52 nM on human GLP-1R and 0.144 nM on human GIP receptor.
